These results are taken from patent US12421253B2 (Mirati Therapeutics, Inc., priority 2020, dated 2025).

One assay concerns the target T1, KRas^G12R (Homo sapiens, UniProt P01116, G12R).
T1 construct: […]; biotin (biotinylated); purchased Accelegan Inc
In words: KRas binding assay (TR-FRET displacement of Cy5 labelled tracer).

A further assay has as its target T2, KRas^G12D (Homo sapiens, UniProt P01116, G12D).
T2 construct: […]; biotin (biotinylated); purchased Accelegan Inc
Described as above.

The target in a further assay is T3, KRas^G12V (Homo sapiens, UniProt P01116, G12V).
T3 construct: […]; biotin (biotinylated); purchased Accelegan Inc
Described as above.

A further assay deals with KRas^Q61H (Homo sapiens, UniProt P01116, Q61H). In words: biochemical.
A further assay has as its target T4, KRas^WT (Homo sapiens, UniProt P01116).
T4 construct: […]; biotin (biotinylated); purchased Accelegan Inc
Kind of assay: KRas binding assay (TR-FRET displacement of Cy5 labelled tracer). Background: TR-FRET usually uses a lanthanide donor and a delayed reading to cut background.

For another assay, the target named is KRas^G12C (Homo sapiens, UniProt P01116, G12C). Kind of assay: biochemical.
Another assay has as its target T5, KRas^G12S (Homo sapiens, UniProt P01116, G12S).
T5 construct: […]; biotin (biotinylated); purchased Accelegan Inc
In words: KRas binding assay (TR-FRET displacement of Cy5 labelled tracer).

In a further assay the target is KRas^G13D (Homo sapiens, UniProt P01116, G13D). Kind of assay: biochemical.
The target in another assay is T6, KRas^G12A (Homo sapiens, UniProt P01116, G12A).
T6 construct: […]; biotin (biotinylated); purchased Accelegan Inc
In words: KRas binding assay (TR-FRET displacement of Cy5 labelled tracer).

A value given as a limit tells only on which side of the number the result lay.

T5 sequence (P01116 1-169 isoform P01116-2 G12S): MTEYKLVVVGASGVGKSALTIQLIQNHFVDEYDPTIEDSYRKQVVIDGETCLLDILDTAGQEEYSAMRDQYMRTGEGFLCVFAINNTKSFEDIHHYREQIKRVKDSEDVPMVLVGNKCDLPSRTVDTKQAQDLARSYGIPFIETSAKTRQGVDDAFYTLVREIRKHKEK
T3 sequence (P01116 1-169 isoform P01116-2 G12V): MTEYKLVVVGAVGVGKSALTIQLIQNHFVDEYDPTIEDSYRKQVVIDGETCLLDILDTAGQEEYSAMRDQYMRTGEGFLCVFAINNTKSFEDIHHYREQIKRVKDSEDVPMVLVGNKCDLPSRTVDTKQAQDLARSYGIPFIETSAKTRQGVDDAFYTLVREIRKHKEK
T4 sequence (P01116 1-169 isoform P01116-2): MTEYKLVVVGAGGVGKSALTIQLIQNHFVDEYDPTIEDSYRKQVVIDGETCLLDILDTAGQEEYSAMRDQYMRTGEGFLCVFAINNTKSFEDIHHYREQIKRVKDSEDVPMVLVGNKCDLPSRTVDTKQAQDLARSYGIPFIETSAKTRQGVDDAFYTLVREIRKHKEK
T1 sequence (P01116 1-169 isoform P01116-2 G12R): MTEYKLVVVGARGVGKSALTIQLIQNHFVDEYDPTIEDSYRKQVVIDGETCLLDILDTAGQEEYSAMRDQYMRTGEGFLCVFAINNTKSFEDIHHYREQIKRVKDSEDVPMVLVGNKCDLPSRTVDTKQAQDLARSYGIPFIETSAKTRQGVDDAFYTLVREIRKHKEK
KRas^Q61H, sequence (P01116 1-169 isoform P01116-2 Q61H): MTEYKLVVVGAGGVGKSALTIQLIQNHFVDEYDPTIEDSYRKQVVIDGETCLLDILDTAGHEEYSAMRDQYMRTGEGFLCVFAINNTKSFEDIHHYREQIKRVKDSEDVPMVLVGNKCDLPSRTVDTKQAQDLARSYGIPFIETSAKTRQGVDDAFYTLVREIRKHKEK
KRas^G12C, sequence (P01116 1-169 isoform P01116-2 G12C): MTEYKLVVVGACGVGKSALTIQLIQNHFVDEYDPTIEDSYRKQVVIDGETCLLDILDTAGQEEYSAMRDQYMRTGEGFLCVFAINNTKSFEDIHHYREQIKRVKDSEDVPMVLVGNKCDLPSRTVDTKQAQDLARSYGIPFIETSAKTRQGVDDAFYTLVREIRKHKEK
T6 sequence (P01116 1-169 isoform P01116-2 G12A): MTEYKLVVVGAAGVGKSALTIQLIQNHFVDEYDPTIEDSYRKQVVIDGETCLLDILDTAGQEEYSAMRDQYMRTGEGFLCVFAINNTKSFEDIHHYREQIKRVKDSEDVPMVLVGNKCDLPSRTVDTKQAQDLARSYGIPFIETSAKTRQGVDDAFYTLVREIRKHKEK
T2 sequence (P01116 1-169 isoform P01116-2 G12D): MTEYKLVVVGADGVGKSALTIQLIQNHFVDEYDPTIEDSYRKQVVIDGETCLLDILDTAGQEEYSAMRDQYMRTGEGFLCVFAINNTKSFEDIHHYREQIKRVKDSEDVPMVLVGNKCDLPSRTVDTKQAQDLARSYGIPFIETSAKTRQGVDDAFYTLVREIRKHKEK
KRas^G13D, sequence (P01116 1-169 isoform P01116-2 G13D): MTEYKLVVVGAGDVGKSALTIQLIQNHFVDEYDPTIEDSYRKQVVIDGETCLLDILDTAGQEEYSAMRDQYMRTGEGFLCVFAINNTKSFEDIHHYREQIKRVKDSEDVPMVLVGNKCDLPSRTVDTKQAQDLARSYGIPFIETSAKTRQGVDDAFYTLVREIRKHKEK
Procedure for KRas^G12A: (§1) The ability of a compound to bind to KRas was measured using a TR-FRET displacement assay. […] After a 60-minute incubation at room temperature, the reaction was measured using a BMG LABTECH CLARIO star Plus via TR-FRET. […] The POC values were fit to a 4-parameter IC50 equation and the IC50 value reported.
Procedure for KRas^G12C: as §1
Procedure for KRas^G12D: as §1
Procedure for KRas^G12R: as §1
Procedure for KRas^G12S: as §1
Procedure for KRas^G12V: as §1
Procedure for KRas^G13D: as §1
Procedure for KRas^Q61H: as §1
Procedure for KRas^WT: as §1

The term IC50 denotes the concentration that gives 50% inhibition. Consider `Oc1cc(N2CCc3c(nc(OC[C@@]45CCCN4C[C@H](F)C5)nc3N3CC4CC(O)CC3C4)C2)c2c(Cl)c(F)ccc2c1` (single isomer, unassigned) [Example 77], for which the results for the IC50 on KRas^G12R, on KRas^G12D and on KRas^G12V were 165 nM, 740 nM and 188 nM, respectively.

Take `CCc1cccc2cccc(N3CCc4c(nc(OCC56CCCN5CCC6)nc4N4CCC(O)CC(CO)C4)C3)c12` (single isomer, unassigned) [Example 172, 1-(7-(8-ethylnaphthalen-1-yl)-2-((hexahydro-1H-pyrrolizin-7a-yl)methoxy)-5,6,7,8-tetrahydropyrido[3,4-d]pyrimidin-4-yl)-6-(hydroxymethyl)azepan-4-ol]: the values for the IC50 on KRas^G12R, at KRas^G12D and at KRas^G12V were 153 nM, 224 nM and 153 nM, respectively.

For `CCc1cccc2cccc(N3CCc4c(nc(OCC56CCCN5CCC6)nc4N4CCC(O)CC(CO)C4)C3)c12` (single isomer, unassigned) [Example 173, 1-(7-(8-ethylnaphthalen-1-yl)-2-((hexahydro-1H-pyrrolizin-7a-yl)methoxy)-5,6,7,8-tetrahydropyrido[3,4-d]pyrimidin-4-yl)-6-(hydroxymethyl)azepan-4-ol], the IC50 at KRas^G12R amounted to 307 nM; on KRas^G12D it was 1160 nM; at KRas^G12V it was 535 nM.

`CCc1cccc2cccc(N3CCc4c(nc(OCC56CCCN5CCC6)nc4N4CCC(O)CC(CO)C4)C3)c12` (single isomer, unassigned) [Example 174, 1-(7-(8-ethylnaphthalen-1-yl)-2-((hexahydro-1H-pyrrolizin-7a-yl)methoxy)-5,6,7,8-tetrahydropyrido[3,4-d]pyrimidin-4-yl)-6-(hydroxymethyl)azepan-4-ol]: the IC50 at KRas^G12R is 24 nM; at KRas^G12D, 287 nM; on KRas^G12V, 38 nM.

Take `Oc1cc(N2CCc3c(nc(OC[C@@]45CCCN4C[C@H](F)C5)nc3N3CC4CC(O)CC3C4)C2)c2c(Br)c(F)ccc2c1` (single isomer, unassigned) [Example 214]: the IC50 at KRas^G12R amounted to 54 nM; at KRas^G12D, 558 nM; on KRas^G12V, 118 nM.

In the case of `CCc1c(F)ccc2cccc(N3CCc4c(nc(OCC56CCCN5CCC6)nc4N4CCC[C@@](C)(O)C4)C3)c12` [Example 3, (R)-1-(7-(8-ethyl-7-fluoronaphthalen-1-yl)-2-((hexahydro-1H-pyrrolizin-7a-yl)methoxy)-5,6,7,8-tetrahydropyrido[3,4-d]pyrimidin-4-yl)-3-methylpiperidin-3-ol], the results for the IC50 on KRas^G12R, at KRas^G12D and at KRas^G12V were 25 nM, 16 nM and 17 nM, respectively.

For `CCc1cccc2cccc(N3CCc4c(nc(OCC56CCCN5CCC6)nc4N4CCCC(C)(O)C4)C3)c12` (stereo not shown) [Example 4, 1-(7-(8-ethylnaphthalen-1-yl)-2-((hexahydro-1H-pyrrolizin-7a-yl)methoxy)-5,6,7,8-tetrahydropyrido[3,4-d]pyrimidin-4-yl)-3-methylpiperidin-3-ol], the IC50 at KRas^G12R was found to be 127 nM; on KRas^G12D, 97 nM; on KRas^G12V, 90 nM.

Take `CCc1cccc2cccc(N3CCc4c(nc(OCC56CCCN5CCC6)nc4Nc4cccnc4)C3)c12` [Example 5, 7-(8-ethylnaphthalen-1-yl)-2-((hexahydro-1H-pyrrolizin-7a-yl)methoxy)-N-(pyridin-3-yl)-5,6,7,8-tetrahydropyrido[3,4-d]pyrimidin-4-amine]: the IC50 at KRas^G12R was determined as 8070 nM; on KRas^G12D it was 19100 nM; at KRas^G12V, 7650 nM.

Turning to `CCc1cccc2cccc(N3CCc4c(nc(OCC56CCCN5CCC6)nc4N4CCOCC(O)C4)C3)c12` (stereo not shown) [Example 6, 4-(7-(8-ethylnaphthalen-1-yl)-2-((tetrahydro-1H-pyrrolizin-7a(5H)-yl)methoxy)-5,6,7,8-tetrahydropyrido[3,4-d]pyrimidin-4-yl)-1,4-oxazepan-6-ol], the IC50 was determined as 132 nM at KRas^Q61H; 71 nM on KRas^G12R; 104 nM on KRas^WT; 88 nM against KRas^G12C; 100 nM on KRas^G12S; 310 nM at KRas^G12D. The concentration for half-maximal inhibition (IC50) on KRas^G13D was 159 nM; on KRas^G12V it was 118 nM; on KRas^G12A, 86 nM.

`CCc1cccc2cccc(N3CCc4c(nc(OCC56CCCN5CCC6)nc4N4CCCC(O)CC4)C3)c12` (stereo not shown) [Example 7, 1-(7-(8-ethylnaphthalen-1-yl)-2-((tetrahydro-1H-pyrrolizin-7a(5H)-yl)methoxy)-5,6,7,8-tetrahydropyrido[3,4-d]pyrimidin-4-yl)azepan-4-ol]: the IC50 against KRas^Q61H worked out at 173 nM; on KRas^G12R, 50 nM; at KRas^WT, 143 nM; against KRas^G12C, 89 nM; on KRas^G12S it was 107 nM; at KRas^G12D, 121 nM. In addition, the IC50 was 143 nM at KRas^G13D, 68 nM on KRas^G12V and 92 nM at KRas^G12A.

With `CCc1cccc2cccc(N3CCc4c(nc(OCC56CCCN5CCC6)nc4N4CCCn5nc(CO)cc5C4)C3)c12` [Example 8, (5-(7-(8-ethylnaphthalen-1-yl)-2-((tetrahydro-1H-pyrrolizin-7a(5H)-yl)methoxy)-5,6,7,8-tetrahydropyrido[3,4-d]pyrimidin-4-yl)-5,6,7,8-tetrahydro-4H-pyrazolo[1,5-a][1,4]diazepin-2-yl)methanol], the IC50 against KRas^Q61H was determined as 567 nM; on KRas^G12R, 102 nM; at KRas^WT, 271 nM; at KRas^G12C, 139 nM; on KRas^G12S, 175 nM; on KRas^G12D it was 43 nM. For the same compound, the values for the IC50 against KRas^G13D, at KRas^G12V and on KRas^G12A were 628 nM, 137 nM and 316 nM, respectively.

With `CCc1cccc2cccc(N3CCc4c(nc(OCC56CCCN5CCC6)nc4N4CCOCC(CO)C4)C3)c12` (stereo not shown) [Example 37, (4-(7-(8-ethylnaphthalen-1-yl)-2-((hexahydro-1H-pyrrolizin-7a-yl)methoxy)-5,6,7,8-tetrahydropyrido[3,4-d]pyrimidin-4-yl)-1,4-oxazepan-6-yl)methanol], the IC50 came to 168 nM at KRas^G12R, 214 nM on KRas^WT, 479 nM on KRas^G12D and 221 nM on KRas^G12V.

For the compound `CCc1cccc2cccc(N3CCc4c(nc(OCC56CCCN5CCC6)nc4N4CCCCC(CO)C4)C3)c12` (stereo not shown) [Example 38, (1-(7-(8-ethylnaphthalen-1-yl)-2-((hexahydro-1H-pyrrolizin-7a-yl)methoxy)-5,6,7,8-tetrahydropyrido[3,4-d]pyrimidin-4-yl)azepan-3-yl)methanol], the IC50 on KRas^G12R is 485 nM; at KRas^WT, 445 nM; at KRas^G12D, at most 2 nM; on KRas^G12V, 204 nM.

Consider `CCc1cccc2cccc(N3CCc4c(nc(OCC56CCCN5CCC6)nc4N4CCCC(O)C4)C3)c12` (stereo not shown) [Example 43, 1-(7-(8-ethylnaphthalen-1-yl)-2-((hexahydro-1H-pyrrolizin-7a-yl)methoxy)-5,6,7,8-tetrahydropyrido[3,4-d]pyrimidin-4-yl)piperidin-3-ol], for which the IC50 on KRas^G12R was 198 nM; against KRas^G12C, 271 nM; on KRas^G12D, 552 nM; on KRas^G12V it was 271 nM.

As for `CCc1cccc2cccc(N3CCc4c(nc(OCC56CCCN5CCC6)nc4N4CCN(c5ccncn5)CC4)C3)c12` [Example 58, 7-(8-ethylnaphthalen-1-yl)-2-((hexahydro-1H-pyrrolizin-7a-yl)methoxy)-4-(4-(pyrimidin-4-yl)piperazin-1-yl)-5,6,7,8-tetrahydropyrido[3,4-d]pyrimidine], the IC50 on KRas^G12R stood at 7910 nM; at KRas^G12C it was 6570 nM; on KRas^G12D it was 20000 nM; on KRas^G12V, 2860 nM.

Regarding `CCc1cccc2cccc(N3CCc4c(nc(OCC56CCCN5CCC6)nc4N4CCCC(c5noc(C(F)(F)F)n5)C4)C3)c12` (stereo not shown) [Example 163, 3-(1-(7-(8-ethylnaphthalen-1-yl)-2-((tetrahydro-1H-pyrrolizin-7a(5H)-yl)methoxy)-5,6,7,8-tetrahydropyrido[3,4-d]pyrimidin-4-yl)piperidin-3-yl)-5-(trifluoromethyl)-1,2,4-oxadiazole], the values for the IC50 on KRas^G12R, on KRas^G12D and at KRas^G12V were 3460 nM, 7110 nM and 5170 nM, respectively.

As to `CCc1cccc2cccc(N3CCc4c(nc(OCC56CCCN5CCC6)nc4NCCc4ccno4)C3)c12` [Example 169, 7-(8-ethylnaphthalen-1-yl)-N-(2-(isoxazol-5-yl)ethyl)-2-((tetrahydro-1H-pyrrolizin-7a(5H)-yl)methoxy)-5,6,7,8-tetrahydropyrido[3,4-d]pyrimidin-4-amine], the IC50 is 5120 nM at KRas^G12R, 8480 nM at KRas^G12D and 7170 nM at KRas^G12V.

In the case of `CCc1cccc2cccc(N3CCc4c(nc(OCC56CCCN5CCC6)nc4NCC4(C)CSC4)C3)c12` [Example 171, 7-(8-ethylnaphthalen-1-yl)-N-((3-methylthietan-3-yl)methyl)-2-((tetrahydro-1H-pyrrolizin-7a(5H)-yl)methoxy)-5,6,7,8-tetrahydropyrido[3,4-d]pyrimidin-4-amine], the IC50 was 8280 nM at KRas^G12R, 16600 nM at KRas^G12D and 8800 nM on KRas^G12V.
